Reference: PubChem BioAssay (NCI)
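Method: 48-hour compound exposure of cells in 96-well plates, five concentrations, linear interpolation of endpoints. GI50 marks 50% less growth. Definition used: TGI = concentration required for complete inhibition of growth.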

What was measured:
Test in all cases: NCI tumour cell line growth inhibition, 48 h
[1] = system: A498 renal
[2] = system: CAKI-1 renal
[3] = system: COLO 205 colon
[4] = system: EKVX NSCLC
[5] = system: HOP-92 NSCLC
[6] = system: NCI-H23 lung
[7] = system: RXF 393 renal
[8] = system: SK-MEL-5 melanoma
[9] = system: SW-620 colon
[10] = system: U251 CNS

| Compound | TGI [1] [µM] | TGI [2] [µM] | TGI [3] [µM] | TGI [4] [µM] | TGI [5] [µM] | TGI [6] [µM] | TGI [7] [µM] | TGI [8] [µM] | TGI [9] [µM] | TGI [10] [µM] | GI50 [1] [µM] | GI50 [2] [µM] | GI50 [3] [µM] | GI50 [4] [µM] | GI50 [5] [µM] | GI50 [6] [µM] | GI50 [7] [µM] | GI50 [8] [µM] | GI50 [9] [µM] | GI50 [10] [µM] |
| --- | --- | --- | --- | --- | --- | --- | --- | --- | --- | --- | --- | --- | --- | --- | --- | --- | --- | --- | --- | --- |
| CC(=O)C1C(=O)C(=O)N(c2ccccc2C(C)C)C1=O (stereo not drawn) | > 100 | > 100 | > 100 | > 100 | > 100 | > 100 | > 100 | > 100 | > 100 | > 100 | – | – | – | – | – | – | – | – | – | – |
| O=C(/C=C/c1ccc([N+](=O)[O-])cc1)c1ccc2c3c(cccc13)CC2 | 43.5 | > 100 | > 25.4 | > 100 | 15.4 | > 100 | 21.3 | > 100 | 6.62 | > 29.6 | 11.6 | 9.69 | 4.98 | 62.9 | 2.43 | 29.1 | 4.47 | 33.2 | 2.34 | 2.65 |
| COc1ccc(C(=O)c2cc3c(N)c(C(=O)Nc4cccc5ccccc45)sc3nc2C)cc1 | 0.764 | > 50 | > 13.3 | > 50 | > 13.5 | > 50 | > 50 | 1.4 | > 50 | > 50 | 0.119 | 0.243 | 0.209 | 0.294 | 0.181 | 0.334 | 0.088 | 0.193 | 0.203 | 0.194 |
| CCc1ccc(NC(=O)COC(=O)c2cc([N+](=O)[O-])ccc2Sc2nnnn2C)cc1 | 74.9 | 46.5 | 33.8 | > 100 | 82.7 | 34.6 | 62 | 18 | 31.5 | 34.1 | 21.5 | 13.7 | 16 | 29.5 | 22.8 | 9.79 | 24 | 4.64 | 10.9 | 15.4 |
| C[C@]12CC[C@H]3[C@@H](CC[C@]4(O)C[C@@H](O)CC[C@]34/C=N/O)[C@@]1(O)CC[C@@H]2C1=COC(=O)C1 | 0.583 | 0.0476 | 1.33 | 0.344 | 1.06 | 0.272 | 0.091 | 0.241 | – | – | – | – | – | – | – | – | – | – | – | – |
| COc1ccc(C2SC(C)C(=O)N2NC(=O)C(O)c2ccccc2)cc1OC (stereo not drawn) | > 100 | > 100 | > 100 | > 100 | > 100 | – | > 100 | > 100 | > 100 | > 100 | > 100 | > 100 | > 100 | > 100 | > 100 | – | > 100 | > 100 | > 100 | > 100 |
| O=c1c2ccccc2nc(-c2ccccc2)n1NC1OC(CO)C(O)C(O)C1O (stereo not drawn) | > 100 | > 100 | > 100 | > 100 | > 100 | > 100 | – | > 100 | > 100 | > 100 | – | – | – | – | – | – | – | – | – | – |
| O=CN/C=C/c1ccc(O)c(O)c1 | > 100 | > 100 | > 100 | > 100 | > 100 | > 100 | > 100 | – | > 100 | > 100 | – | – | – | – | – | – | – | – | – | – |
| CCOC(=O)NC(=O)c1cn(CCN2CCN(c3ncnc4nc[nH]c34)CC2)c(=O)[nH]c1=O | > 100 | – | > 100 | > 100 | > 100 | > 100 | > 100 | > 100 | > 100 | > 100 | – | – | – | – | – | – | – | – | – | – |
| COc1ccc2ccccc2c1C1OC(=O)c2ccccc21 (stereo not drawn) | > 100 | > 100 | > 100 | > 100 | > 100 | > 100 | – | > 100 | > 100 | > 100 | – | – | – | – | – | – | – | – | – | – |
| O=C(COc1ccc(/C=C2\Oc3ccccc3C2=O)cc1)Nc1nc2c(s1)CCCC2 | 98.2 | 8.28 | > 100 | > 100 | 2.53 | > 100 | – | > 57.5 | > 100 | > 100 | 30.6 | 0.801 | > 73.2 | 10.7 | 0.212 | 11.9 | – | 17.4 | 4.07 | 2.29 |
| C/C(CC(=O)Nc1ccc(Cl)cc1)=N\NC(N)=S | > 100 | – | > 100 | > 100 | > 100 | > 100 | > 100 | > 100 | > 100 | > 100 | – | – | – | – | – | – | – | – | – | – |
| O=S1(=O)OCCOS(=O)(=O)C1Cc1ccccc1 | > 100 | > 100 | 34.8 | > 100 | > 100 | > 100 | > 100 | – | > 100 | > 100 | – | – | – | – | – | – | – | – | – | – |
